Assay results published in patent US8518956B2, “1-(1-(2-ethoxyethyl)-3-ethyl-7-(4-methylpyridin-2-ylamino)-1H-pyrazolo[4,3-d]pyrimidin-5-yl) piperidine-4-carboxylic acid and salts thereof” (priority 2005, dated 2013).
Read-outs that look alike come from different tables or passages of the source.

What was measured:
PDE11 enzyme = target: T1, PDE11 enzyme (Homo sapiens, UniProt Q9HCR9, DUP921-921); test: Method 3: Human Recombinant PDE11 Enzyme Inhibition Scintillation Proximity Assay (SPA); format: biochemical; settings: WO2004096810 examples
T1 construct: FLAG (N); made in house; host or cells: Sf9 insect cells (baculovirus, pFastBac)
Protocol: Method 3: Human Recombinant PDE11 Enzyme Inhibition Scintillation Proximity Assay (SPA)
PDE11 Expression and Purification:
Incubate at 27° C. with 220 rpm shaking for 48 hours. Harvest the infected cells by pelleting at 2000 rpm for 10 minutes at 4° C. Store the infected cell pellet at −80° C. until ready for purification. Resuspend the thawed cell pellets to 1×10^7 cells/ml (=20 ml buffer consisting of 20 mM Hepes (pH7.2), 1 mM EDTA, 20 mM sucrose, 150 mM NaCl and protease inhibitor tablets). Mix thoroughly and allow to stand on ice for 10 minutes. Sonicate for 5×5 seconds, on ice. Spin the mixture at 12,000 rpm for 10 minutes at 4° C. in SS34. Store the insoluble pellet at −80° C., and proceed to the purification of the soluble material. • (b) Purification: Prepare the column (1.0 cm diameter, Kontes) by rinsing the empty column twice with TBS. Then mix beads (Anti-FLAG M2 Agarose, Sigma) with TBS and add to the column—allow the beads to settle. Wash the column with 3 column volumes of 0.1M glycine (pH3.5). […] Apply the extract to the column and allow the extract to enter by gravity flow. Reapply the flow-through. Wash the column with 15 column volumes of TBS. Elute the protein with 5×1 ml aliquots of FLAG peptide (Sigma) (i.e., 100 ug/ml in TBS). Elute the remaining protein with 1 ml 0.1M glycine, and immediately add 25 ul 1M Tris pH8 to neutralize. Method 3A: Alternative Human Recombinant PDE11 Enzyme Inhibition Scintillation Proximity Assay (SPA)

PDE5 enzyme = target: T2, PDE5 enzyme (Homo sapiens, UniProt O76074); test: Method 1: Human Platelet PDE5 Enzyme Inhibition Scintillation Proximity Assay; format: biochemical; settings: METHOD 1: PDE5 IC50, Table B, WO2004096810 examples
T2 construct: The PDE5 enzyme isolated from human platelets; from tissue; host or cells: human platelets
Procedure, shortened: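 Human platelet PDE5 hydrolysing 500 nM cGMP (3:1 unlabelled:[3H]) in Tris-HCl pH 7.4 with MgCl2 and BSA, 60 min at 30 °C. Reaction stopped with yttrium silicate SPA beads and [3H]GMP counted by scintillation. IC50 from sigmoid curves over a 10-point half-log dilution series, in duplicate.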

PDE6 enzyme = settings: read-out: METHOD 2: PDE6 IC50; Table F, WO2004096810 examples
Text: Method 2: Human Retina PDE6 Enzyme Inhibition Scintillation Proximity Assay (SPA)
The inhibition of PDE6 enzyme activity by a test compound can be measured in accordance with the in vitro assay of Method 1, but instead using semi-purified PDE6 enzyme isolated from human, bovine or canine retina in place of PDE5 enzyme. […] [3H]GMP binds to yttrium silicate SPA beads and is detected by scintillation counting. • PDE6 Purification: PDE6 can be isolated and purified from the following: Soluble rod PDE6/Rod Outer Segment PDE6 from Bovine eyes (Charles River Ltd, France); Cone PDE6 from Canine eyes (LAS); or Soluble rod and Cone PDE6 from Human eyes (I.I.A.M.).
While supporting the eye with the cornea uppermost, make a small incision through the conjunctiva below the level of the iris. The incision should be sufficient to allow the humor to escape through the cut. Using fine scissors, cut around the cornea to enable it to be lifted off as a flap. Using a small hook, engage the lens and gently pull it out of orbit, taking care not to pull out the retina at the same time. Allow the retina to drop down of its own accord to the base of the orbit.
Lift the retina with care and locate the optic nerve. Cut through the optic nerve and transfer the retina to a small dish containing a few ml of homogenisation buffer. Gently float the retina out on the surface of the buffer and remove any obvious pigmented material from the iris. Place the retina in a second dish with clean buffer to remove last traces of pigment and then transfer to a 50 ml Corning Costar centrifuge tube (Sigma) and keep on ice. • PDE6 Isolation and Purification from Retina: Allow 2 mls of the homogenisation buffer per bovine retina and 1 ml per retina for dog and human. Homogenise using hand-held homogeniser 3×5 second bursts cooling on ice between each burst. Filter homogenate through two layers of surgical gauze. Spin at 100,000 g for 60 minutes at 4° C. […] Run through FPLC (Pharmacia FPLC LKB/FRAC-100, Pharmacia) or aliquot and store in liquid nitrogen as needed. Method 2A: Alternative Human Retina PDE6 Enzyme Inhibition Scintillation Proximity Assay (SPA)

[1] = test system: spontaneously hypertensive rats (SHR); test: Method 12: SHR Rat Combination Therapy, blood pressure by telemetry; format: in vivo; settings: 0.007% in drinking water, day 7
[2] = Table F, read-out: METHOD 3: PDE11 IC50

T1 sequence (Q9HCR9 with tags, fused parts or gaps DUP921-921 limits assumed): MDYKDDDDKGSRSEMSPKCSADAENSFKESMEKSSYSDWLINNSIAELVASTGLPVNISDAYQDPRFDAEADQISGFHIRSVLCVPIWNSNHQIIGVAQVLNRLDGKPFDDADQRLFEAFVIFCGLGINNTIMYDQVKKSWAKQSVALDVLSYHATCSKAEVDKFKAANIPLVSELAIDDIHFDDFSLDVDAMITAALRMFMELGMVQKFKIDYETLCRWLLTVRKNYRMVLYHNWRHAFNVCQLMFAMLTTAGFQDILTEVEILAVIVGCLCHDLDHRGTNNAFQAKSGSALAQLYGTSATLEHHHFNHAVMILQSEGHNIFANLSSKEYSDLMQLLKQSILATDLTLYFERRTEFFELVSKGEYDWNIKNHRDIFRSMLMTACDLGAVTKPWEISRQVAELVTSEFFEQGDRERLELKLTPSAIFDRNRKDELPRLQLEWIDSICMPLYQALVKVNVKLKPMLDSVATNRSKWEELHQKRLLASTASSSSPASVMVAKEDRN

SMILES	IC50 (PDE11 enzyme; METHOD 3: PDE11 IC50, Table F) [nM]	IC50 (PDE5 enzyme) [nM]	IC50 (PDE6 enzyme) [nM]	IC50 (PDE11 enzyme; [2]) [nM]	maximal reduction of blood pressure from pre-dose baseline in comparison to vehicle treated group [1] [mmHg]
CCc1nn(CCOCC(F)(F)F)c2c(Nc3cc(C)ncn3)nc(N(C)C3CCN(C)CC3)nc12 [WO2004096810 Example 251]	1860	0.25	9.51	–	–
Cc1cccc(Nc2nc(N3CCNCC3)nc3c(C)nn(CCOCC(F)(F)F)c23)n1 [WO2004096810 Example 258]	–	1.99	198	215	–
CCc1nn(CCOCC(F)(F)F)c2c(Nc3ccnnc3)nc(N3CCN[C@H](C)C3)nc12 [WO2004096810 Example 248]	–	0.3	9.92	316	–
CCc1nn(CCOCC(F)(F)F)c2c(Nc3ccnc(C)n3)nc(N3CCN[C@H](C)C3)nc12 [WO2004096810 Example 250]	–	2.37	221	3120	–
COCc1nn(CCOCC(F)(F)F)c2c(Nc3cccc(C)n3)nc(N3CCN[C@H](C)C3)nc12 [WO2004096810 Example 252]	–	2.81	307	874	–
CCOCc1nn(CCOCC(F)(F)F)c2c(Nc3cccc(C)n3)nc(N3CCN[C@H](C)C3)nc12 [WO2004096810 Example 255]	–	1.43	207	937	–
CCOCc1nn(CCOCC(F)(F)F)c2c(Nc3cc(C)ccn3)nc(N3CCN[C@H](C)C3)nc12 [WO2004096810 Example 256]	–	3.82	275	913	–
Cc1ccnc(Nc2nc(N(C)[C@H]3CCN(C)C3)nc3c(C)nn(CCOCC(F)(F)F)c23)c1 [WO2004096810 Example 245]	–	1.55	250	390	–
CCc1nn(CCOCC(F)(F)F)c2c(Nc3ccncn3)nc(N3CCN[C@H](C)C3)nc12 [WO2004096810 Example 249]	–	0.16	5.1	1190	–
Cc1nccc(Nc2nc(N3CCN[C@H](C)C3)nc3c(C)nn(CCOCC(F)(F)F)c23)n1 [WO2004096810 Example 246]	–	4.46	657	4320	–
CCOC(=O)[C@H](CCc1ccccc1)N[C@@H](C)C(=O)N1CCC[C@H]1C(=O)O [Enalapril, enalapril]	–	–	–	–	22±2
COCc1nn(CCOCC(F)(F)F)c2c(Nc3cc(C)ccn3)nc(N3CC4CCC(C3)N4)nc12 [WO2004096810 Example 259]	199	3.74	204	–	–
COCc1nn(CCOCC(F)(F)F)c2c(Nc3cccc(C)c3)nc(N3CCN[C@H](C)C3)nc12 [WO2004096810 Example 253]	–	1.2	100	312	–
